Among the data in patent US10894798B2, “Substituted dihydropyrrolopyrazole derivative” (UBE INDUSTRIES, LTD., priority 2015, dated 2021) are Ki and GI50 values, retold here.

One test deals with T1, CDK2 (Homo sapiens, UniProt P24941).
T1 construct: purchased Invitrogen Corp. PV3267
Kind of test: CDK2 enzyme inhibition test. Type of test: biochemical. Conditions: [γ-33P]ATP, MBP substrate; Ki=IC50/(1+S/Km); read-out: Ki value of CDK2 inhibitory activity. The gist of the method:
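Commercial CDK2 phosphorylated MBP with [γ-33P]ATP (500 μM solution before mixing) in HEPES pH 7.4 buffer with DTT, Triton X-100 and MgCl2 for 20 min at 30 °C. TCA-precipitated 33P-MBP was counted by scintillation to give the IC50. Ki = IC50/(1+S/Km), with S the ATP concentration in the reaction.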

For a further test, the target named is T2, PLK1 (Homo sapiens, UniProt P53350).
T2 construct: purchased Carna Biosciences, Inc. 05-157
Nature of the test: PLK1 enzyme (polo-like kinase) inhibition test. The test is classed as biochemical. Conditions: [γ-33P]ATP, casein substrate; Ki=IC50/(1+S/Km); read-out: Ki value of PLK1 inhibitory activity. The gist of the method: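 Recombinant PLK1 phosphorylates casein with [γ-^33P]ATP in MOPS buffer (pH 7.0) containing DTT and magnesium acetate, 20 min at 30° C. Reaction stopped with TCA; washed precipitate counted by liquid scintillation. IC50 for inhibition of ^33P incorporation into casein, converted to Ki via Ki=IC50/(1+S/Km).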

Test [1] concerns human large intestine cancer cell line (HCT-116). Nature of the test: Human large intestine cancer (HCT-116) cell growth inhibition test. Type of test: cell-based. Conditions: HCT-116, 72 h, culture for 3 days, sulforhodamine B, read-out: GI50 value, HCT-116 cell growth inhibition. The procedure, abridged: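 HCT-116 cells were seeded at 0.5 to 2.0×10^3 cells/well in McCoy's 5A with 10% FBS and dosed with compound at 0.1% final DMSO after overnight culture. Growth was measured by sulforhodamine B absorbance after 3 days. GI50 was calculated from the inhibition rate at each concentration.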

Where only a bound is given, the exact number is not on record here.

T2 sequence (P53350 whole entry): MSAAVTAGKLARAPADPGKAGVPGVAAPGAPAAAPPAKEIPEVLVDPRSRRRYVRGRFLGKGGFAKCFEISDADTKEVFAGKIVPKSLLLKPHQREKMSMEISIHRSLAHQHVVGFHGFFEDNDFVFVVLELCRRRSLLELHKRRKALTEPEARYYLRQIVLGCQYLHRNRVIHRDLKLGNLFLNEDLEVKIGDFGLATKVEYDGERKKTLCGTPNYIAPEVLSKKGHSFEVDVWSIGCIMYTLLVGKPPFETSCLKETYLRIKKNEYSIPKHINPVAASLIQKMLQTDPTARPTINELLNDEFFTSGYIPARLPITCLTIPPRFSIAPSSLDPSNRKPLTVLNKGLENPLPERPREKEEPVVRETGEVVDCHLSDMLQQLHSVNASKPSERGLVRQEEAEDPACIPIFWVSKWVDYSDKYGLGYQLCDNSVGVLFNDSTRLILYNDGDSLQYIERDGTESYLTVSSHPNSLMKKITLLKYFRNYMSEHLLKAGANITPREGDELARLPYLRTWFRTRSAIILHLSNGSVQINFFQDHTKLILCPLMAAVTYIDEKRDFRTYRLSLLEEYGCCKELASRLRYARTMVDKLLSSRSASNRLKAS

For the compound `CC1(C)c2[nH]nc(NC(=O)C3([Si](C)(C)C)CCC3)c2CN1C(=O)Nc1c(F)ccc2cc(Cl)oc12` [IV-1063, N-(2-Chloro-6-fluorobenzofuran-7-yl)-6,6-dimethyl-3-[1-(trimethylsilyl)cyclobutanecarboxamido]-4,6-dihydropyrrolo[3,4-c]pyrazole-5(1H)-carboxamide], the Ki (in general, the equilibrium dissociation constant of an inhibitor or competing ligand from its target) on CDK2 was at least 1000 nM; at PLK1 it was at least 5000 nM. Besides, the GI50 – broadly, the concentration giving 50% growth inhibition – in test [1] was at most 100 nM.
